In US8207178B2 (priority 2007, dated 2012):
Like-named read-outs stand apart in the source and are kept apart here.

What was measured:
Experiment in all cases: microbe, parasite or virus in culture
Assay type in all cases: cell-based, human immunodeficiency virus type 1 (HIV-1)
HIV-1 K103N mutant = details: Human immunodeficiency virus 1, HeLa, read-out: EC50 mutant K103N
HIV-1 K103N-Y181C mutant = details: Human immunodeficiency virus 1, HeLa, read-out: EC50 mutant K103N-Y181C
wild type HIV-1 = system: wild type HIV-1
HIV-1 Y188L mutant = details: Human immunodeficiency virus 1, HeLa, read-out: EC50 mutant Y188L
HIV-1 K103N-L100I mutant = system: HIV-1 K103N-L100I mutant
[1] = Human immunodeficiency virus 1, Hela-JC53
[2] = Human immunodeficiency virus 1, HeLa, read-out: EC50 mutant K103N-L100I, mutant K103N-L100I

Row | SMILES | EC50 (HIV-1 K103N mutant) [nM] | EC50 (HIV-1 K103N-Y181C mutant) [nM] | EC50 (wild type HIV-1; [1]) [nM] | EC50 (HIV-1 Y188L mutant) [nM] | EC50 (HIV-1 K103N-L100I mutant; [2]) [nM] | EC50 (wild type HIV-1) [nM] | EC50 (HIV-1 K103N-L100I mutant; read-out: EC50 mutant K103N-L100I, mutant K103N-L100I) [nM]
1 | Cc1cc(-c2cccc(C#N)n2)cc(C)c1Oc1nc(Nc2ccc(C#N)cc2)nc2ccn(C)c12 [Example 17, 6-(4-(2-(4-Cyanophenylamino)-5-methyl-5H-pyrrolo[3,2-d]pyrimidin-4-yloxy)-3,5-dimethylphenyl)picolinonitrile] | 1 to 10 | > 10 | 1 to 10 | > 10 | 1 to 10 | – | –
2 | Cc1cc(-c2ccc(S(N)(=O)=O)cc2)cc(C)c1Oc1nc(Nc2ccc(C#N)cc2)nc2nc[nH]c12 [Example 46, 4′-(2-(4-Cyanophenylamino)-7H-purin-6-yloxy)-3′,5′-dimethylbiphenyl-4-sulfonamide] | 1 to 10 | 1 to 10 | 1 to 10 | > 10 | > 10 | – | –
3 | Cc1cc(-c2ccc(C(N)=O)cn2)cc(C)c1Oc1nc(Nc2ccc(C#N)cc2)nc2ncn(C)c12 [Example 123, 6-(4-(2-(4-cyanophenylamino)-7-methyl-7H-purin-6-yloxy)-3,5-dimethylphenyl)nicotinamide] | 1 to 10 | > 10 | 1 to 10 | 1 to 10 | > 10 | – | –
4 | Cc1cc(-c2ccc(C(N)=O)cc2)cc(C)c1Oc1nc(Nc2ccc(C#N)cc2)nc2ccn(C)c12 [Example 78, 4′-(2-(4-cyanophenylamino)-5-methyl-5H-pyrrolo[3,2-d]pyrimidin-4-yloxy)-3′,5′-dimethylbiphenyl-4-carboxamide] | 1 to 10 | 1 to 10 | 1 to 10 | 1 to 10 | 1 to 10 | – | –
5 | Cc1cc(-c2ccc(C(N)=O)cn2)cc(C)c1Oc1nc(Nc2ccc(C#N)cc2)nc2ccn(C)c12 [Example 61, 6-(4-(2-(4-Cyanophenylamino)-5-methyl-5H-pyrrolo[3,2-d]pyrimidin-4-yloxy)-3,5-dimethyl-phenyl)nicotinamide] | 1 to 10 | > 10 | 1 to 10 | 1 to 10 | 1 to 10 | – | –
6 | Cc1cc(-c2ccncc2C#N)cc(C)c1Oc1nc(Nc2ccc(C#N)cc2)nc2ccn(C)c12 [Example 5, 4-(4-(2-(4-Cyanophenylamino)-5-methyl-5H-pyrrolo[3,2-d]pyrimidin-4-yloxy)-3,5-dimethylphenyl)nicotinonitrile] | < 1 | 1 to 10 | – | > 10 | – | < 1 | < 1
7 | Cc1cc(-c2cccc(C#N)c2)cc(C)c1Oc1nc(Nc2ccc(C#N)cc2)nc2ccn(C)c12 [Example 16, 4′-(2-(4-Cyanophenylamino)-5-methyl-5H-pyrrolo[3,2-d]pyrimidin-4-yloxy)-3′,5′-dimethylbiphenyl-3-carbonitrile] | > 10 | > 10 | 1 to 10 | > 10 | > 10 | – | –
8 | Cc1cnccc1-c1cc(C)c(Oc2nc(Nc3ccc(C#N)cc3)nc3ccn(C)c23)c(C)c1 [Example 7, 4-(4-(2,6-Dimethyl-4-(3-methylpyridin-4-yl)phenoxy)-5-methyl-5H-pyrrolo [3,2-d]pyrmidin-2-ylamino)benzonitrile] | 1 to 10 | 1 to 10 | 1 to 10 | > 10 | 1 to 10 | – | –
9 | Cc1cc(-c2ccncc2)cc(C)c1Oc1nc(Nc2ccc(C#N)cc2)nc2ccn(C)c12 [Example 1, 4-(4-(2,6-Dimethyl-4-(pyridin-4-yl)phenoxy)-5-methyl-5H-pyrrolo[3,2-d]pyrimidin-2-ylamino)benzonitrile] | < 1 | 1 to 10 | 1 to 10 | 1 to 10 | 1 to 10 | – | –
10 | Cc1cc(-c2ccncc2)cc(C)c1Oc1nc(Nc2ccc(C#N)cc2)nc2nc[nH]c12 [Example 29, 4-(6-(2,6-Dimethyl-4-(pyridin-4-yl)phenoxy)-7H-purin-2-ylamino)benzonitrile] | < 1 | 1 to 10 | < 1 | 1 to 10 | 1 to 10 | – | –
11 | Cc1cc(-c2ccncc2F)cc(C)c1Oc1nc(Nc2ccc(C#N)cc2)nc2ccn(C)c12 [Example 2, 4-(4-(4-(3-Fluoropyridin-4-yl)-2,6-dimethylphenoxy)-5-methyl-5H-pyrrolo[3,2-d]pyrimidin-2-ylamino) benzonitrile] | 1 to 10 | 1 to 10 | 1 to 10 | > 10 | 1 to 10 | – | –
12 | Cc1cc(-c2ccc(C(N)=O)cc2F)cc(C)c1Oc1nc(Nc2ccc(C#N)cc2)nc2ccn(C)c12 [Example 50, 4′-(2-(4-Cyanophenylamino)-5-methyl-5H-pyrrolo[3,2-d]pyrimidin-4-yloxy)-2-fluoro-3′,5′-dimethylbiphenyl-4-carboxamide] | 1 to 10 | 1 to 10 | 1 to 10 | > 10 | 1 to 10 | – | –
13 | Cc1cc(-c2cc(C)c(Oc3nc(Nc4ccc(C#N)cc4)nc4ccn(C)c34)c(C)c2)ccn1 [Example 8, 4-(4-(2,6-Dimethyl-4-(2-methylpyridin-4-yl)phenoxy)-5-methyl-5H-pyrrolo[3,2-d]pyrimidin-2-ylamino) benzonitrile] | > 10 | > 10 | 1 to 10 | > 10 | > 10 | – | –
14 | Cc1cc(-c2ccc(C(N)=O)cc2)cc(C)c1Oc1nc(Nc2ccc(C#N)cc2)nc2ncn(C)c12 [Example 111, 4′-(2-(4-Cyanophenylamino)-7-methyl-7H-purin-6-yloxy)-3′,5′-dimethylbiphenyl-4-carboxamide] | 1 to 10 | > 10 | 1 to 10 | > 10 | 1 to 10 | – | –
15 | Cc1cc(-c2ccncc2)cc(C)c1Nc1nc(Nc2ccc(C#N)cc2)nc2ccn(C)c12 [Example 19, 4-(4-(2,6-Dimethyl-4-(pyridin-4-yl)phenylamino)-5-methyl-5H-pyrrolo[3,2-d]pyrimidin-2-ylamino)benzonitrile] | – | – | < 1 | – | 1 to 10 | – | –
16 | Cc1cc(-c2cccnc2Cl)cc(C)c1Oc1nc(Nc2ccc(C#N)cc2)nc2ccn(C)c12 [Example 80, 4-(4-(4-2-chloropyridin-3-yl)-2,6-dimethylphenoxy)-5-methyl-5H-pyrrolo[3,2-d] pyrimidin-2-ylamino benzonitrile] | – | – | 1 to 10 | – | 1 to 10 | – | –
17 | Cc1cc(-c2cncnc2)cc(C)c1Oc1nc(Nc2ccc(C#N)cc2)nc2ccn(C)c12 [Example 14, 4-(4-(2,6-dimethyl-4-(pyrimidin-5-yl)phenoxy)-5-methyl-5H-pyrrolo[3,2-d]pyrimidin-2-ylamino) benzonitrile] | – | – | < 1 | – | 1 to 10 | – | –
18 | Cc1cc(-c2ccc(S(N)(=O)=O)cc2)cc(Cl)c1Oc1nc(Nc2ccc(C#N)cc2)nc2c1ncn2C [Example 113, 3′-chloro-4′-(2-(4-cyanophenylamino)-9-methyl-9H-purin-6-yloxy)-5′-methylbiphenyl-4-sulfonamide] | – | – | < 1 | – | 1 to 10 | – | –
19 | Cc1cc(-c2ccc(C(N)=O)cc2)cc(C)c1Oc1nc(Nc2ccc(C#N)cc2)nc2c(Cl)cn(C)c12 [Example 88, 4′-(7-chloro-2-(4-cyanophenylamino)-5-methyl-5H-pyrrolo[3,2-d]pyrimidin-4-yloxy)-3′,5′-dimethylbiphenyl-4-carboxamide] | – | – | 1 to 10 | – | 1 to 10 | – | –
20 | Cc1cc(-c2ccncc2)cc(Cl)c1Oc1nc(Nc2ccc(C#N)cc2)nc2nc[nH]c12 [Example 100, 4-(6-(2-Chloro-6-methyl-4-(pyridin-4-yl)phenoxy)-7H-purin-2-ylamino)benzonitrile] | – | – | 1 to 10 | – | > 10 | – | –
21 | Cc1cc(-c2cccc3ncccc23)cc(C)c1Oc1nc(Nc2ccc(C#N)cc2)nc2ccn(C)c12 [Example 38, 4-(4-(2,6-Dimethyl-4-(quinolin-5-yl)phenoxy)-5-methyl-5H-pyrrolo[3,2-d]pyrimidin-2-ylamino) benzonitrile] | – | – | 1 to 10 | – | 1 to 10 | – | –
22 | Cc1cc(-c2ccc(C(N)=O)nc2)cc(C)c1Oc1nc(Nc2ccc(C#N)cc2)nc2c1ncn2C [Example 119, 5-(4-(2-(4-cyanophenylamino)-9-methyl-9H-purin-6-yloxy)-3,5-dimethylphenyl)picolinamide] | – | – | < 1 | – | > 10 | – | –
23 | COc1ccc(Cn2cnc3c(Oc4ccc(-c5ccncc5)cc4)nc(Nc4c(C)cc(C#N)cc4C)nc32)cc1 [Example 105, 4-(9-(4-Methoxybenzyl)-6-(4-(pyridin-4-yl)phenoxy)-9H-purin-2-ylamino)-3,5-dimethylbenzonitrile] | – | – | > 10 | – | > 10 | – | –
24 | Cc1cc(-c2ccncc2)ccc1Oc1nc(Nc2ccc(C#N)cc2)nc2nc[nH]c12 [Example 98, 4-(6-(2-Methyl-4-(pyridin-4-yl)phenoxy)-7H-purin-2-ylamino)benzonitrile] | – | – | < 1 | – | > 10 | – | –
25 | Cc1cc(-c2ccnnc2)cc(C)c1Oc1nc(Nc2ccc(C#N)cc2)nc2ncn(C)c12 [Example 58, 4-(6-(2,6-Dimethyl-4-(pyridazin-4-yl)phenoxy)-7-methyl-7H-purin-2-ylamino)benzonitrile] | – | – | 1 to 10 | – | 1 to 10 | – | –
26 | COc1cccc(-c2cc(C)c(Oc3nc(Nc4ccc(C#N)cc4)nc4ccn(C)c34)c(C)c2)c1C#N [Example 81, 4′-(2-(4-cyanophenylamino)-5-methyl-5H-pyrrolo[3,2-d]pyrimidin-4-yloxy)-3-methoxy-3′,5′-dimethylbiphenyl-2-carbonitrile] | – | – | 1 to 10 | – | > 10 | – | –
27 | Cc1cc(-c2ccc(S(N)(=O)=O)cc2)cc(Cl)c1Oc1nc(Nc2ccc(C#N)cc2)nc2ncn(C)c12 [Example 115, 3′-chloro-4′-(2-(4-cyanophenylamino)-7-methyl-7H-purin-6-yloxy)-5′-methylbiphenyl-4-sulfonamide] | – | – | < 1 | – | < 1 | – | –
